Reference: patent US20230257354A1, “NOVEL HETEROCYCLIC COMPOUNDS” (Hoffmann-La Roche Inc., priority 2020, published 2023)
Counter-ions that a name gives are not always drawn.

Tests used:
[1] = system: Acinetobacter baumannii ATCC17961; test: Antimicrobial susceptibility testing, 90% growth inhibitory concentration (IC90) determination, ATCC17961; type: cell-based; conditions: Iso-Sensitest broth, OD 600 nm over 16 h, 35±2° C., read-out: ATCC 17961 IC90
Protocol: Antimicrobial Susceptibility Testing: 90% Growth Inhibitory Concentration (IC90) Determination The in vitro antimicrobial activity of the compounds was determined according to the following procedure: The assay used a 10-points Iso-Sensitest broth medium to measure quantitatively the in vitro activity of the compounds against Acinetobacter baumannii ATCC17978 or ATCC17961. Stock compounds in DMSO were serially twofold diluted (e.g. range from 50 to 0.097 μM final concentration) in 384 wells microtiter plates and inoculated with 49 μl the bacterial suspension in Iso-Sensitest medium to have a final cell concentration of ˜5×10^(5) CFU/ml in a final volume/well of 50 ul/well. Microtiter plates were incubated at 35±2° C. Bacterial cell growth was determined with the measurement of optical density at X=600 nm each 20 minutes over a time course of 16 h. Growth inhibition was calculated during the logarithmic growth of the bacterial cells with determination of the concentration inhibiting 50% (IC50) and 90% (IC90) of the growth. Table 2 provides the 90% growth inhibitory concentrations (IC90) in micromoles per liter of the compounds of present invention obtained against the strain Acinetobacter baumannii ATCC17961.

[2] = system: Acinetobacter baumannii ATCC17978; test: Antimicrobial susceptibility testing, 90% growth inhibitory concentration (IC90) determination, ATCC17978; type: cell-based; conditions: Iso-Sensitest broth, OD 600 nm over 16 h, 35±2° C., read-out: ATCC 17978 IC90
How it was run: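 Serial twofold dilutions (e.g. 50 to 0.097 μM final) in Iso-Sensitest broth, inoculum ~5×10^(5) CFU/ml, incubated 35±2 °C for 16 h. OD600 read every 20 min; growth inhibition calculated during logarithmic growth to derive the concentration inhibiting 90% of growth, in μM.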

IC90 [1] | IC90 [2] | Compound
0.139 µM |  | COc1ccc(-c2cnc(C(=O)Nc3ccc(C(=O)N[C@H]4[C@@H]5CN(C(=O)[C@@H]6C[C@@H](O)CN6)C[C@@H]54)c(Cl)c3)n2C)c(F)c1F [Example B43, N-[3-chloro-4-[[(exo)-3-[(2S,4R)-4-hydroxyprolyl]-3-azabicyclo[3.1.0]hexan-6-yl]carbamoyl]phenyl]-5-(2,3-difluoro-4-methoxy-phenyl)-1-methyl-imidazole-2-carboxamide; 1:1 hydrogen chloride]
0.155 µM |  | COc1ccc(-c2cnc(C(=O)Nc3ccc(C(=O)N[C@H]4[C@@H]5CN(C(=O)N[C@@H]6CNC[C@H]6O)C[C@@H]54)c(Cl)c3)n2C)c(F)c1F [Example B44, (exo)-6-[[2-chloro-4-[[5-(2,3-difluoro-4-methoxy-phenyl)-1-methyl-imidazole-2-carbonyl]amino]benzoyl]amino]-N-[(trans)-4-hydroxypyrrolidin-3-yl]-3-azabicyclo[3.1.0]hexane-3-carboxamide; 1:1 hydrogen chloride]
 | 0.65 µM | Cc1cc(NC(=O)c2ncc(-c3ccc(OCC#N)c(F)c3F)n2C)ccc1C(=O)NCCNC(=O)N[C@@H]1CNC[C@H]1O [Example B30, 5-[4-(cyanomethoxy)-2,3-difluoro-phenyl]-N-[4-[2-[[(3R,4R)-4-hydroxypyrrolidin-3-yl]carbamoylamino]ethylcarbamoyl]-3-methyl-phenyl]-1-methyl-imidazole-2-carboxamide;formic acid]
 | 0.18 µM | CCc1cc(NC(=O)c2ncc(-c3ccc(OCC#N)c(F)c3Cl)n2C)ccc1C(=O)NCCOCCN [Example A22, N-[4-[2-(2-aminoethoxy)ethylcarbamoyl]-3-ethyl-phenyl]-5-[2-chloro-4-(cyanomethoxy)-3-fluoro-phenyl]-1-methyl-imidazole-2-carboxamide;hydrochloride]
 | 0.24 µM | COc1ccc(-c2cnc(C(=O)Nc3ccc(C(=O)NCC4CC(CN)C4)c(Cl)c3)n2C)c(F)c1F (stereo not shown) [Example A7, N-[4-[[3-(aminomethyl)cyclobutyl]methylcarbamoyl]-3-chloro-phenyl]-5-(2,3-difluoro-4-methoxy-phenyl)-1-methyl-imidazole-2-carboxamide;formic acid]
 | 0.25 µM | CCc1cc(NC(=O)c2ncc(-c3ccc(OC)c(F)c3F)n2C)ccc1C(=O)NCCCOCCN(C)C [Example A30, 5-(2,3-difluoro-4-methoxy-phenyl)-N-[4-[3-[2-(dimethylamino)ethoxy]propylcarbamoyl]-3-ethyl-phenyl]-1-methyl-imidazole-2-carboxamide]
 | 1.3 µM | Cn1c(-c2ccc(OCC#N)c(F)c2F)cnc1C(=O)Nc1ccc(C(=O)NCCNC(=O)[C@H]2CCNC[C@@H]2O)c(Cl)c1 [Example B35, (3R,4S)-N-[2-[[2-chloro-4-[[5-[4-(cyanomethoxy)-2,3-difluoro-phenyl]-1-methyl-imidazole-2-carbonyl]amino]benzoyl]amino]ethyl]-3-hydroxy-piperidine-4-carboxamide;formic acid]
